The results in this text go back to patent publication US5686426A, “Dicarboxymethylated glycolipid derivatives as cell adhesion inhibitors” (Bristol-Myers Squibb Company, priority 1994, dated 1997).

The test concerns HL-60 cells / activated platelets (P-selectin). As to the kind of experiment: HL-60 Platelet Cell Adhesion Assay. Type of test: cell-based. To be noted: HL-60 cell adhesion to thrombin-activated human platelets. The procedure: HL-60 cells, obtained from American Type Culture Collection, were cultured in RPMI 1640 medium (GIBCO) supplemented with 20% fetal calf serum (Sigma) and 50 μg/ml gentamicin (GIBCO). Cells in log phase growth were harvested, washed and resuspended in Tyrodes buffer containing 5 mM HEPES and 0.2% bovine serum albumin and were fixed with 1% buffered formalin.
Blood from normal human donors was anticoagulated with citrate, layered over 1-Step Platelets (Accurate Chemical Co.), and centrifuged at 350 g for 20 minutes at room temperature. The platelet band was collected, diluted in 2 volumes of Tyrode's Buffer with 5 mM HEPES, 10 mM EDTA, and 0.2% BSA (pH 7.4) (THEB) and centrifuged at 600 g for 10 minutes. The platelet pellet was resuspended in THEB and incubated at room temperature for 1 hour. Calcein-acetoxy methylester (Calcein-Am, Molecular Probes) was added to the platelets at a final concentration of 10 μM and incubated for 10 minutes at 37° C. to label the platelets. Without washing, the platelets were counted on a Coulter counter model ZM, and the concentration was adjusted to 1×10^7 /ml. The platelets were activated with 2 U/ml of human thrombin for 10 minutes in Tyrode's containing 2 mM CaCl2, 5 mM HEPES, and 0.2% BSA (pH 7.4) (THB) at 37° and immediately fixed with 1% buffered formalin for 1 to 2 hours at room temperature. A small aliquot of labeled platelets was removed before activation and designated as non-activated.
Both platelets and HL-60 were washed in a ≥5 fold excess volume of Hanks Balanced Salt Solution (HBSS), resuspended in THB and counted. Cell concentrations were adjusted to 2×10^7 /ml for platelets and 4×10^6 /ml for HL-60, this ratio determined to be optimum for platelet: HL-60 cell adhesion. Compounds were incubated with 50 μl of platelets for 30 minutes at room temperature before addition of 50 μl of HL-60. This ratio of 5:1 platelets to HL-60 was incubated for 30 minutes at room temperature before addition of 0.2 ml of THB to increase the volume so the samples could be analyzed on a FACScan cytometer (Becton Dickinson). Non-activated platelets, and activated platelets with 10 mM EDTA were included as controls. Data were collected within a region set for the forward scatter channel corresponding to HL-60 size events.
The percent HL-60 cells which contained bound platelets was determined for each test condition. The inhibition of binding was determined by comparison to standards which were treated with vehicle alone (representing 0% inhibition) and standards whose specific binding had been blocked by the use of EDTA (representing 100% inhibition), by the following formula: [formula] where x=HL-60 cells containing bound platelets in the presence of the compound;
b=HL-60 cells containing bound platelets in the presence of EDTA;
a=HL-60 cells containing bound platelets in presence of compound vehicle;
z=% inhibition of platelet: HL-60 cell adhesion

SMILES strings stand for the structures.

In turn, `CCCCCCCCCCCCC/C=C/[C@@H](OC(=O)c1ccccc1)[C@H](CO[C@H]1O[C@H](COCC(=O)O)[C@H](OCC(=O)O)[C@H](OC(=O)c2ccccc2)[C@H]1OC(=O)c1ccccc1)NC(=O)CCCCCCCCCCCCCCC` [Example 2, (2S,3R,4E)-3-Benzoyloxy-2-hexadecanoylamino-1-[2,3-di-O-benzoyl-4,6-di-O-carboxymethyl-α-D-galactopyranosyloxy]-4-octadecene] displayed an IC50 of 32 µM. The value for `CCCCCC/C=C/[C@@H](OC(=O)c1ccccc1)[C@H](CO[C@H]1O[C@H](COCC(=O)O)[C@H](OCC(=O)O)[C@H](OC(=O)c2ccccc2)[C@H]1OC(=O)c1ccccc1)NC(=O)CCCCCCCCC(=O)OC` [Example 8, (2S,3R,4E)-3-Benzoyloxy-2-(9-methoxycarbonyl-nonanoylamino)-1-(2,3-di-O-benzoyl-4,6-di-O-carboxymethyl-α-D-galactopyranosyloxy)-4-undecene] was more than 100 µM; that for `CCCCCCCCCCCCC/C=C/[C@@H](OC(=O)c1ccccc1)[C@H](CO[C@H]1O[C@H](COCC(=O)O)[C@H](OCC(=O)O)[C@H](O)[C@H]1OC(=O)c1ccccc1)NC(=O)CCCCCCCCCCCCCCC` [Example 14, (2S,3R,4E)-3-Benzoyloxy-2-hexadecanoylamino-1-[2-O-benzoyl-4,6-di-O-carboxymethyl-α-D-galactopyranosyloxy]-4-octadecene] was 20 µM; that for `CCCCCCCCCCCCC/C=C/[C@@H](OC(=O)c1ccccc1)[C@H](CO[C@@H]1O[C@H](COCC(=O)O)[C@H](OCC(=O)O)[C@H](OC(=O)c2ccccc2)[C@H]1OC(=O)c1ccccc1)NC(=O)CCCCCCCCCCCCCCC` [Example 16, (2S,3R,4E)-2-Hexadecanoylamino-3-benzoyloxy-1-(4,6-di-O-carboxymethyl-2,3-di-O-benzoyl-β-D-galactopyranoside)-4-octadecene] was 10.1 µM. The value for `CCCCCCCCCCCCC/C=C/[C@@H](OC(=O)c1ccccc1)[C@H](CO[C@@H]1O[C@H](COCC(=O)O)[C@H](OCC(=O)O)[C@H](OC(=O)c2ccccc2)[C@H]1O)NC(=O)CCCCCCCCCCCCCCC` [Example 18, (2S,3R,4E)-3-Benzoyloxy-2-hexadecanoylamino-1-[3-O-benzoyl-4,6-di-O-carboxymethyl-β-D-galactopyranosyloxy]-4-octadecene] was 7 µM.
